Reference: US7332504B2, “Heterocyclic substituted aminoazacycles useful as central nervous system agents” (Abbott Laboratories, priority 1999, dated 2008)
Where a name gives a salt, the structure may show the parent alone.

Columns and labels:
[1] = biological target: T1, neuronal nicotinic acetylcholine receptors (Rattus norvegicus, UniProt P09483+P12390); assay: Binding of [3H]-cytisine to neuronal nicotinic acetylcholine receptors, crude synaptic membranes from whole rat brain
T1 construct: crude synaptic membrane preparations from whole rat brain; from tissue; host or cells: whole rat brain, crude synaptic membranes
T1 sequence (P09483 31-630): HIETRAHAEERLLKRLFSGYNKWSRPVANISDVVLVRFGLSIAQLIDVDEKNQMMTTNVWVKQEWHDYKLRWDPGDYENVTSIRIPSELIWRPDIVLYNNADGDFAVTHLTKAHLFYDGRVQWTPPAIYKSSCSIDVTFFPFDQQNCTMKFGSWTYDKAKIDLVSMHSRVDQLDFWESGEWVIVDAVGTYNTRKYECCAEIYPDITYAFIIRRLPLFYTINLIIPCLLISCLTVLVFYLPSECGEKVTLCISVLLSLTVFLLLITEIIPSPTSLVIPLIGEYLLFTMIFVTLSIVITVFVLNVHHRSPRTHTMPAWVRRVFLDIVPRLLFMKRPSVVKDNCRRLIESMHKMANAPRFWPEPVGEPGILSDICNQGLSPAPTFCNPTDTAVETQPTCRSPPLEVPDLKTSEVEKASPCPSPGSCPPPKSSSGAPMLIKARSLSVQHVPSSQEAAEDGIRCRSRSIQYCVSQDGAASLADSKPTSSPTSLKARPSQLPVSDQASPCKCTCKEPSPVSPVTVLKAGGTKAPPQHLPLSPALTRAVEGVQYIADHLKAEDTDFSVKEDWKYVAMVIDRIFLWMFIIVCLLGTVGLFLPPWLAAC
T1 sequence (P12390 25-500): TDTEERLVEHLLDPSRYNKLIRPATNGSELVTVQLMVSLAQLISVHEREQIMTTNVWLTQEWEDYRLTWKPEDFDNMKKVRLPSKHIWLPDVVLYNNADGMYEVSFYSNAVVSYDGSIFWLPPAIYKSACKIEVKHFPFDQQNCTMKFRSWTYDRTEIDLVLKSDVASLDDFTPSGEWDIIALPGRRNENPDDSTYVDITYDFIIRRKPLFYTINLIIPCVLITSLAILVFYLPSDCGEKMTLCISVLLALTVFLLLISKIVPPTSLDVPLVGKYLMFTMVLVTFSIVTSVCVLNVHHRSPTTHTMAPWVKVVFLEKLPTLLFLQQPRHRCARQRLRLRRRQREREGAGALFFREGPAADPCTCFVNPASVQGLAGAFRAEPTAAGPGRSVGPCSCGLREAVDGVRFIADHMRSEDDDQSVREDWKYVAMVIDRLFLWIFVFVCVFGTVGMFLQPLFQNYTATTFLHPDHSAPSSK
Experimental: The In Vitro protocols for determination of nicotinic acetylcholine channel receptor binding potencies of ligands were determined as follows.
Binding of [^3H]-cytisine ([^3 H]-CYT) to neuronal nicotinic acetylcholine receptors was accomplished using crude synaptic membrane preparations from whole rat brain (Pabreza et al., Molecular Pharmacol., 1990, 39:9). Washed membranes were stored at —80° C. prior to use. Frozen aliquots were slowly thawed and resuspended in 20 volumes of buffer (containing: 120 mM NaCl, 5 mM KCl, 2 mM MgCl2, 2 mM CaCl2 and 50 mM Tris-Cl, pH 7.4 @4° C.). After centrifuging at 20,000×g for 15 minutes, the pellets were resuspended in 30 volumes of buffer.
The test compounds were dissolved in water to make 10 mM stock solutions. Each solution was then diluted (1:100) with buffer (as above) and further taken through seven serial log dilutions of produce test solution from 10^−5 to 10^−11 M.
Homogenate (containing 125-150 μg protein) was added to triplicate tubes containing the range of concentrations of test compound described above and [^3H]-CYT (1.25 nM) in a final volume of 500 μL. Samples were incubated for 60 minutes at 4° C., then rapidly filtered through Whatman GF/B filters presoaked in 0.5% polyethyleneimine using 3×4 mL of ice-cold buffer. The filter are counted in 4 mL of Ecolume® (ICN). Nonspecific binding was determined in the presence of 10 μM (−)-nicotine and values were expressed as a percentage of total binding. IC50 values were determined with the RS-1 (BBN) nonlinear least squares curve-fitting program and IC50 values were converted to Ki values using the Cheng and Prusoff correction ([…].

[2] = tested on: mouse hot plate paradigm; assay: Mouse hot plate paradigm (analgesia); format: in vivo; conditions: ip, 0.5 h, mice, intraperitoneal, dosed 30 minutes prior to testing, hot plate 55° C., increase in tenth jump latency relative to control, read-out: minimally effective dose (MED)
Experimental: An in vivo protocol was utilized to determine the effectiveness of nicotinic acetylcholine receptor ligands as analgesic agents in the mouse hot plate paradigm.
Separate groups of mice, (n=8/group) were utilized for each dose group. All drugs were administered by the intraperitoneal route of administration. Test drugs were dissolved in water to make a 6.2 mM stock solution. Animals were dosed with this solution (10 mL/kg body weight) for a 62 micromol/kg dose. Lower doses were administered similarly, following serial dilution of the stock solution in half-log increments. Animals were dosed 30 minutes prior to testing in the hot plate. The hot-plate utilized was an automated analgesia monitor (Model #AHP16AN, Omnitech Electronics, Inc. of Columbus, Ohio). The temperature of the hot plate was maintained at 55° C. and a cut-off time of 180 seconds was utilized. Latency until the tenth jump was recoreded as the dependent measure. An increase in the tenth jump latency relative to the control was considered an effect.

## CN(C)[C@H]1CCN(c2ccc(Cl)nc2)C1 (as salt: benzenesulfonate) [Example 3, N-[(3S)-1-(6-chloro-3-pyridinyl)pyrrolidinyl]-N,N-dimethylamine 4-methylbenzenesulfonate]
other
  melting point: 190 to 191.5 °C

## N[C@@H]1CCN(c2ccc(Cl)nc2)C1 (as salt: benzenesulfonate) [Example 4, (3R)-1-(6-chloro-3-pyridinyl)pyrrolidinylamine 4-methylbenzenesulfonate]
other
  melting point: 224.5 to 225.5 °C

## N[C@H]1CCCN(c2cccnc2)C1 (as salt: benzenesulfonate) [Example 41, (3S)-1-(3-pyridinyl)piperidinylamine bis(4-methylbenzenesulfonate)]
other
  melting point: 64 to 66 °C

## N[C@H]1CCCN(c2ccc(Cl)nc2)C1 (as salt: benzenesulfonate) [Example 45, (3S)-1-(6-chloro-3-pyridinyl)piperidinylamine bis(4-methylbenzenesulfonate)]
other
  melting point: 182 to 184 °C

## N[C@H]1CCN(c2cncc([N+](=O)[O-])c2)C1 (as salt: fumarate) [Example 29, (3S)-1-(5-nitro-3-pyridinyl)pyrrolidinylamine fumarate]
other
  melting point: 213 to 214 °C

## CN[C@H]1CCN(c2cncc([N+](=O)[O-])c2)C1 (as salt: fumarate) [Example 30, N-methyl-N-[(3S)-1-(5-nitro-3-pyridinyl)pyrrolidinyl]amine fumarate]
other
  melting point: 183 to 185 °C

## N[C@@H]1CCN(c2cncc([N+](=O)[O-])c2)C1 (as salt: fumarate) [Example 31, (3R)-1-(5-nitro-3-pyridinyl)pyrrolidinylamine fumarate]
other
  melting point: 212 to 213 °C

## CN[C@@H]1CCN(c2cncc([N+](=O)[O-])c2)C1 (as salt: fumarate) [Example 32, N-methyl-N-[(3R)-1-(5-nitro-3-pyridinyl)pyrrolidinyl]amine fumarate]
other
  melting point: 184 to 185 °C

## CN[C@H]1CCN(c2ccc(Cl)nc2)C1 (as salt: hydrochloride) [Example 1, N-[(3S)-1-(6-chloro-3-pyridinyl)pyrrolidinyl]-N-methylamine hydrochloride]
other
  melting point: > 250 °C

## N[C@H]1CCN(c2ccc(Cl)nc2)C1 (as salt: hydrochloride) [Example 2, (3S)-1-(6-chloro-3-pyridinyl)pyrrolidinylamine dihydrochloride]
other
  melting point: > 250 °C

## CN[C@@H]1CCN(c2ccc(Cl)nc2)C1 (as salt: hydrochloride) [Example 5, N-[(3R)-1-(6-chloro-3-pyridinyl)pyrrolidinyl]-N-methylamine hydrochloride]
other
  melting point: 265 °C (dec.)

## N[C@@H]1CCN(c2cncc(C(F)(F)F)c2)C1 (as salt: hydrochloride) [Example 11, (3R)-1-[5-(trifluoromethyl)-3-pyridinyl]pyrrolidinylamine dihydrochloride]
other
  melting point: 234 to 235 °C

## CN[C@@H]1CCN(c2cncc(C(F)(F)F)c2)C1 (as salt: hydrochloride) [Example 12, N-methyl-N-{(3R)-1-[5-(trifluoromethyl)-3-pyridinyl]pyrrolidinyl}amine hydrochloride]
other
  melting point: 265 °C (dec.)

## N[C@H]1CCN(c2cncc(C(F)(F)F)c2)C1 (as salt: hydrochloride) [Example 13, (3S)-1-[5-(trifluoromethyl)-3-pyridinyl]pyrrolidinylamine dihydrochloride]
other
  melting point: 235 to 236 °C

## CN[C@H]1CCN(c2cncc(C(F)(F)F)c2)C1 (as salt: hydrochloride) [Example 14, N-methyl-N-{(3S)-1-[5-(trifluoromethyl)-3-pyridinyl]pyrrolidinyl}amine hydrochloride]
other
  melting point: 240 to 243 °C (dec.)

## CN[C@H]1CCCN(c2ccc(Cl)nc2)C1 (as salt: hydrochloride) [Example 46, N-[(3S)-1-(6-chloro-3-pyridinyl)piperidin-3-yl]-N-methylamine dihydrochloride]
other
  melting point: 120 to 122 °C

## N[C@@H]1CCN(c2cncc([N+](=O)[O-])c2)C1 [Example 31, (3R)-1-(5-nitro-3-pyridinyl)pyrrolidinylamine fumarate]
[1]
  Ki: 3.5 nM
[2]
  minimal effective dose: 6.2 µmol/kg

## NC1CCCN(c2ccc(Cl)nc2)C1 (stereo not shown) [Example 38, 1-(6-chloro-3-pyridinyl)-3-piperidinylamine 4-methylbenzenesulfonate]
[1]
  Ki: 0.51 nM
[2]
  minimal effective dose: 6.2 µmol/kg

## N[C@H]1CCCN(c2cccnc2)C1 [Example 41, (3S)-1-(3-pyridinyl)piperidinylamine bis(4-methylbenzenesulfonate)]
[1]
  Ki: 0.89 nM
[2]
  minimal effective dose: 19 µmol/kg

## CN[C@H]1CCCN(c2cccnc2)C1 [Example 42, N-methyl-N-[(3S)-1-(3-pyridinyl)piperidin-3-yl]amine bis(4-methylbenzenesulfonate)]
[1]
  Ki: 83 nM
[2]
  minimal effective dose: 62 µmol/kg

## N[C@@H]1CCCN(c2cccnc2)C1 [Example 43, (3R)-1-(3-pyridinyl)piperidinylamine bis(4-methylbenzenesulfonate)]
[1]
  Ki: 1.1 nM
[2]
  minimal effective dose: 0.62 µmol/kg

## N[C@H]1CCCN(c2ccc(Cl)nc2)C1 [Example 45, (3S)-1-(6-chloro-3-pyridinyl)piperidinylamine bis(4-methylbenzenesulfonate)]
[1]
  Ki: 0.35 nM
[2]
  minimal effective dose: 0.62 µmol/kg

## CN[C@H]1CCCN(c2ccc(Cl)nc2)C1 [Example 46, N-[(3S)-1-(6-chloro-3-pyridinyl)piperidin-3-yl]-N-methylamine dihydrochloride]
[1]
  Ki: 60 nM
[2]
  minimal effective dose: 62 µmol/kg

## N[C@@H]1CCCN(c2ccc(Cl)nc2)C1 [Example 47, (3R)-1-(6-chloro-3-pyridinyl)piperidin-3-ylamine bis(4-methylbenzenesulfonate)]
[1]
  Ki: 0.38 nM
[2]
  minimal effective dose: 1.9 µmol/kg

## CN[C@@H]1CCCN(c2ccc(Cl)nc2)C1.Cl.Cl [Example 48, N-[(3R)-1-(6-chloro-3-pyridinyl)piperidin-3-yl]-N-methylamine dihydrochloride]
[1]
  Ki: 166 nM
other
  melting point: 103 to 105 °C

## CN[C@H]1CCCN(c2cnc(Cl)c(C)c2)C1.Cl [Example 49, N-[(3S)-1-(6-chloro-5-methyl-3-pyridinyl)piperidin-3-yl]-N-methylamine hydrochloride]
[1]
  Ki: 4.8 nM
[2]
  minimal effective dose: 62 µmol/kg
other
  melting point: 75 to 77 °C
